For experiment [1], the system named is cultured human mast cells (CHMC). The experiment in a line: CHMC low cell density IgE activation: tryptase and LTC4 assays. The experiment is classed as cell-based. The settings on record: Low Density CHMC, anti-IgE activation. Summed up:
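Degranulation measured after 30 min anti-IgE challenge at 37° C of CHMC plated at 1000-1500 cells/well following 1 h preincubation. Readouts: LTC4 by ELISA on donor-specific diluted supernatants, and tryptase activity from a 30 min room-temperature substrate reaction.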

Experiment [2] has the same test system. As to the kind of experiment: CHMC low cell density ionomycin activation: tryptase assay. The class given is cell-based. The settings on record: Low Density CHMC, ionomycin activation, tryptase readout, read-out: CHMC Ionomycin Tryptase.
Where [3] appears, read: tryptase readout, read-out: CHMC anti-IgE Tryptase.
Setting [4] is: Homo sapiens, Mast cell, tryptase readout, read-out: CHMC anti-IgE Tryptase.

Molecules are shown by their SMILES.

On to `COC(=O)Cn1ncc2cc(Nc3ncc(F)c(Nc4cccc(O)c4)n3)ccc21` [Compound R935237, 5-Fluoro-N4-(3-hydroxyphenyl)-N2-[1-(methoxycarbonyl)methyl-indazoline-5-yl]-2,4-pyrimidinediamine], for which the figures for the IC50 in experiment [1] (setting [3]) and in experiment [2] were 0.24 µM and > 10 µM, respectively.
In the case of `OBc1cccc(Nc2nc(Nc3ccc4c(c3)OCCO4)ncc2F)c1` [Compound R926756, N2-(3,4-Ethylenedioxyphenyl)-5-fluoro-N4-(3-hydroxyborylphenyl)-2,4-pyrimidinediamine], the IC50 in experiment [1] (setting [4]) was 1.36 µM; in experiment [2] (Homo sapiens, Mast cell), > 10 µM.
Regarding `COC(=O)c1cccc(Nc2ncc(F)c(Nc3cccc(C(=O)OC)c3)n2)c1` [Compound R945035, N2,N4-Bis(3-methoxycarbonylphenyl)-5-fluoro-2,4-pyrimidinediamine], the IC50 in experiment [1] (setting [4]) is > 10 µM; in experiment [2] (Homo sapiens, Mast cell) it was > 10 µM.
As to `COC(=O)Cn1ncc2cc(Nc3ncc(F)c(Nc4ccc(OC(C)C)cc4)n3)ccc21` [Compound R935222, 5-Fluoro-N4-(4-isopropoxyphenyl)-N2-[1-(methoxycarbonyl)methyl-indazoline-5-yl]-2,4-pyrimidinediamine], the IC50 was 0.52 µM in experiment [1] (setting [3]) and > 10 µM in experiment [2].
On to `Oc1c(Cl)cc(Nc2ncc(F)c(Nc3ccc4c(c3)OCCO4)n2)cc1Cl` [Compound R926763, N4-(3,4-Ethylenedioxyphenyl)-5-fluoro-N2-(3,5-dichloro-4-hydroxyphenyl)-2,4-pyrimidinediamine], for which the IC50 in experiment [1] (setting [4]) is 0.195 µM; in experiment [2] (Homo sapiens, Mast cell) it was > 10 µM.
On to `Fc1cnc(Nc2ccc3[nH]ccc3c2)nc1Nc1ccc2[nH]ccc2c1` [Compound R926582, N2,N4-Bis(indol-5-yl)-5-fluoro-2,4-pyrimidinediamine], for which the IC50 in experiment [1] (setting [4]) was 1.3 µM; in experiment [2] (Homo sapiens, Mast cell) it was > 10 µM.
The like results for `Oc1cccc(Nc2nc(NCCN3CCN(Cc4ccccc4)CC3)ncc2F)c1` [Compound R940261, N2-[2-(N-Benzylpiperazino)ethyl]-5-fluoro-N4-(3-hydroxyphenyl)-2,4-pyrimidinediamine] were, in that order, > 10 µM and > 10 µM.
Regarding `Oc1cccc(Nc2nc(NCc3ccc4c(c3)OCCO4)ncc2F)c1` [Compound R945168, N2-(2,3-Dihydro-1,4-benzodioxin-6-ylmethyl)-5-fluoro-N4-(3-hydroxyphenyl)-2,4-pyrimidinediamine], the IC50 was 10 µM in experiment [1] (setting [4]) and > 10 µM in experiment [2] (Homo sapiens, Mast cell).
The like results for `Fc1cnc(Nc2ccc3cc[nH]c3c2)nc1Nc1ccc2cc[nH]c2c1` [Compound R926594, N2,N4-Bis(indol-6-yl)-5-fluoro-2,4-pyrimidinediamine] were, in that order, > 10 µM and > 10 µM.
Take `Cc1cnc(Nc2ccccc2-c2ccccc2)nc1Nc1ccccc1-c1ccccc1` [Compound R926404, N2,N4-Bis(2-phenylphenyl)-5-methyl-2,4-pyrimidinediamine]: the IC50 in experiment [1] (setting [4]) was > 10 µM; in experiment [2] (Homo sapiens, Mast cell) it was > 10 µM.
Regarding `CCOC(=O)c1cc2cccc(Nc3ncc(F)c(Nc4cc(OC)cc(OC)c4)n3)c2[nH]1` [Compound R926803, N4-(3,5-Dimethoxyphenyl)-N2-(2-ethoxycarbonylindol-7-yl)-5-fluoro-2,4-pyrimidinediamine], the IC50 in experiment [1] (setting [4]) was 1.54 µM; in experiment [2] (Homo sapiens, Mast cell), > 10 µM.
With `Fc1cnc(Nc2ccc(-n3cnc(Cl)c3Cl)cc2)nc1Nc1ccc2c(c1)OCCO2` [Compound R926788, N2-[4-(4,5-Dichloro-1H-imidazol-1-yl)phenyl]-N4-(3,4-ethylenedioxyphenyl)-5-fluoro-2,4-pyrimidinediamine], the IC50 in experiment [1] (setting [4]) is 0.336 µM; in experiment [2] (Homo sapiens, Mast cell), 6.34 µM.
The matching figures for `CCOC(=O)C=Nc1cccc(Nc2ncc(F)c(Nc3ccc4c(c3)OCCO4)n2)c1` [Compound R950186, N4-(3,4-Ethylenedioxyphenyl)-N2-(3-ethoxycarbonylmethyleneaminophenyl)-5-fluoro-2,4-pyrimidinediamine]: 0.558 µM and > 10 µM.
The matching figures for `Oc1ccc(Nc2ncc(F)c(Nc3ccc(O)c(C(F)(F)F)c3)n2)cc1C(F)(F)F` [Compound R950093, N2,N4-Bis(4-hydroxy-3-trifluoromethylphenyl)-5-fluoro-2,4-pyrimidinediamine]: 0.64 µM and 5.55 µM.
The matching figures for `CN1C=COc2cc(Nc3ncc(F)c(Nc4cccc(O)c4)n3)ccc21` [Compound R908704, 5-Fluoro-N4-(3-hydroxyphenyl)-N2-(N-methyl-1,4-benzoxazin-7-yl)-2,4-pyrimidinediamine]: 0.511 µM and > 10 µM.
With `CC(C)Nc1cccc(Nc2ncc(F)c(Nc3cccc(NC(C)C)c3)n2)c1` [Compound R950166, N2,N4-Bis[3-(N-isopropyl)aminophenyl]-5-fluoro-2,4-pyrimidinediamine], the IC50 in experiment [1] (setting [4]) is 1.89 µM; in experiment [2] (Homo sapiens, Mast cell), > 10 µM.
Turning to `COC(=O)c1cc2cc(Nc3ncc(F)c(Nc4ccc5[nH]c(C(=O)OC)cc5c4)n3)ccc2[nH]1` [Compound R926593], the IC50 in experiment [1] (LTC4 readout, read-out: CHMC anti-IgE LTC4) was 0.495 µM; in experiment [1] (setting [3]), 0.68 µM; in experiment [2], 8.3 µM.
With `CCOC(=O)c1cc2cc(Nc3ncc(F)c(Nc4ccc5[nH]c(C(=O)OCC)cc5c4)n3)ccc2[nH]1` [Compound R926616, N2,N4-Bis(2-ethoxycarbonylindol-5-yl)-5-fluoro-2,4-pyrimidinediamine], the IC50 stood at 0.625 µM in experiment [1] (setting [4]) and 3.25 µM in experiment [2] (Homo sapiens, Mast cell).
The matching figures for `CCOC(=O)c1cc2cccc(Nc3cc(Nc4cccc(O)c4)c(F)cn3)c2[nH]1` [Compound R926814, N2-(2-Ethoxycarbonylindol-7-yl)-5-fluoro-N4-(3-hydroxyphenyl)-2,4-pyridinediamine]: 1.1 µM and > 10 µM.
As for `COc1ccc(C(Nc2ncc(F)c(NC(c3ccc(OC)cc3)c3ccc(OC)cc3)n2)c2ccc(OC)cc2)cc1` [Compound R935004, N2,N4-Bis[[di-(4-methoxyphenyl)]methyl]-5-fluoro-2,4-pyrimidinediamine], the IC50 in experiment [1] (setting [4]) is > 10 µM; in experiment [2] (Homo sapiens, Mast cell), > 10 µM.
As for `Cc1cnc(NCCc2ccc(O)cc2)nc1NCCc1ccc(O)cc1` [Compound R926397, N2,N4-Bis[2-(4-hydroxyphenyl)ethyl]-5-methyl-2,4-pyrimidinediamine], the IC50 was > 10 µM in experiment [1] (setting [4]) and > 10 µM in experiment [2] (Homo sapiens, Mast cell).
As to `CC(C)(C)c1cccc(Nc2ncc(F)c(Nc3cccc(O)c3)n2)c1` [Compound R940257, N2-(3-tert-Butylphenyl)-5-fluoro-N4-(3-hydroxyphenyl)-2,4-pyrimidinediamine], the IC50 is 0.667 µM in experiment [1] (setting [4]) and > 10 µM in experiment [2] (Homo sapiens, Mast cell).
With `CNC(=O)C=Nc1cccc(Nc2ncc(F)c(Nc3cccc(O)c3)n2)c1` [Compound R950217, 5-Fluoro-N4-(3-hydroxyphenyl)-N2-[3-(N-methylamino)carbonylmethyleneaminophenyl]-2,4-pyrimidinediamine], the IC50 is 0.34 µM in experiment [1] (setting [4]) and > 10 µM in experiment [2] (Homo sapiens, Mast cell).
As to `Clc1ccc(-c2cnc(Nc3ccc4c(c3)OCCO4)nc2Nc2ccc3c(c2)OCCO3)cc1` [Compound R925786, N2,N4-Bis(3,4-ethylenedioxyphenyl)-5-(4-chlorophenyl)-2,4-pyrimidinediamine], the IC50 in experiment [1] (setting [4]) is 1.85 µM; in experiment [2] (Homo sapiens, Mast cell), > 10 µM.
In the case of `Nc1cccc(Nc2nc(Nc3ccc4c(c3)N=CCO4)ncc2F)c1` [Compound R950254, N4-(3-Aminophenyl)-N2-(1,4-benzoxazin-6-yl)-5-fluoro-2,4-pyrimidinediamine], the IC50 was 0.496 µM in experiment [1] (setting [4]) and > 10 µM in experiment [2] (Homo sapiens, Mast cell).
Take `CC(=O)Nc1cccc(OCCCNc2ncc(F)c(Nc3ccc4c(c3)OCCO4)n2)c1` [Compound R926787, N2-[3-(3-Acetamidophenoxy)propyl]-N4-(3,4-ethylenedioxyphenyl)-5-fluoro-2,4-pyrimidinediamine]: the IC50 is 5.42 µM in experiment [1] (setting [4]) and > 10 µM in experiment [2] (Homo sapiens, Mast cell).
Regarding `COC(=O)c1ccc(Nc2ncc(F)c(Nc3ccc(C(=O)OC)c(O)c3)n2)cc1O` [Compound R945056, N2,N4-Bis[3-hydroxy-4-(methoxycarbonyl)phenyl]-5-fluoro-2,4-pyrimidinediamine], the IC50 was 10 µM in experiment [1] (setting [4]) and > 10 µM in experiment [2] (Homo sapiens, Mast cell).
With `COc1ccc(Nc2ccnc(Nc3ccc(OC)c(-c4ccccc4)c3)n2)cc1-c1ccccc1` [Compound R925806, N2,N4-Bis(4-methoxy-3-phenylphenyl)-2,4-pyrimidinediamine], the IC50 in experiment [1] (setting [4]) is > 10 µM; in experiment [2] (Homo sapiens, Mast cell) it was > 10 µM.
For `CCNC(=O)Nc1cccc(Nc2ncc(F)c(Nc3cccc(NC(=O)NCC)c3)n2)c1` [Compound R945045, N2,N4-Bis[3-(ethylaminocarbonylamino)phenyl]-5-fluoro-2,4-pyrimidinediamine], the IC50 in experiment [1] (setting [4]) is > 10 µM; in experiment [2] (Homo sapiens, Mast cell), > 10 µM.
For `Brc1cnc(Nc2ccccc2-c2ccccc2)nc1Nc1ccccc1-c1ccccc1` [Compound R925798, N2,N4-Bis(2-phenylphenyl)-5-bromo-2,4-pyrimidinediamine], the IC50 in experiment [1] (setting [4]) was > 10 µM; in experiment [2] (Homo sapiens, Mast cell), > 10 µM.
In the case of `COC(=O)c1cc(Nc2ncc(F)c(Nc3ccc(O)c(C(=O)OC)c3)n2)ccc1O` [Compound R945043, N2,N4-Bis(4-hydroxy-3-methoxycarbonylphenyl)-5-fluoro-2,4-pyrimidinediamine], the IC50 is > 10 µM in experiment [1] (setting [4]) and > 10 µM in experiment [2] (Homo sapiens, Mast cell).
`CC(C)(C)c1cccc(Nc2ncc(F)c(Nc3ccc4c(c3)N=CCO4)n2)c1` [Compound R909246, N4-(1,4-Benzoxazin-6-yl)-N2-(3-tert-butylphenyl)-5-fluoro-2,4-pyrimidinediamine]: the IC50 is 0.169 µM in experiment [1] (setting [4]) and > 10 µM in experiment [2] (Homo sapiens, Mast cell).

The record behind these values is patent US10828301B2, “2,4-pyrimidinediamine compounds and their uses” (Rigel Pharmaceuticals, Inc, priority 2002, dated 2020).
